Reference: publication PMC4635503, “High-affinity nitrate/nitrite transporters NrtA and NrtB of Aspergillus nidulans exhibit high specificity and different inhibitor sensitivity” (Microbiology, 2015)
Converted amounts (≈) assume the structure as drawn. “Also recorded” adds a separate entry of the source. Where two headings read alike, the source gives them in different places.

What was measured:
[1] = test system: nitrate transport by NrtA and NrtB; assay: Net nitrate transport inhibition assays, strain not specified; format: cell-based, Aspergillus nidulans; details: net nitrate transport; data not shown
Description: (§1) These were performed on cultures grown in liquid AMM with 5 mM urea as nitrogen source for a total of 6.5 h at 37 °C ([Brownlee & Arst, 1983]). Urea was used as it (i) is a neutral nitrogen source, neither inducing nor repressing nitrate transport, (ii) has been used routinely in the past and (iii) permitted direct comparison with previously published results. […] Transporter activity was induced by the addition of 10 mM sodium nitrate 100 min prior to assay as described previously ([Brownlee & Arst, 1983]). Assays were carried out in triplicate, generally at pH 6.5, on three independently grown cultures for each strain and expressed as nmol nitrate removed from the medium min^ − 1 (mg dried mycelium)^ − 1, as discussed before ([Brownlee & Arst, 1983]; [Kinghorn et al., 2005]; [Unkles et al., 2012]). Both carbonic acid and bicarbonate chemical species can occur at pH 6.5. Thus potential inhibition of nitrate transport by carbonic acid/bicarbonate was tested at pH 6.5 and bicarbonate at pH 8.3.
(§2) To effectively assess net uptake, it is necessary that any export, i.e. simultaneous transport in the reverse direction, is minimal.

[2] = target: T1, NrtA (Emericella nidulans, UniProt P22152); assay: cell-based; parameters: mutant nrtB110 (expressing a functional NrtA); endogenous in cells; host or cells: Aspergillus nidulans mycelium, knockout strain nrtB110, nitrate-induced; species or system Aspergillus nidulans; details: for Ki: K i, nrtB110 (NrtA), inhibitor concentration reducing net nitrate uptake rate by 50 % of control, mean ± SE; for nature of inhibition of nitrate transport (Lineweaver–Burk): NrtA (expressed in nrtB110)
Description: as §1, §2
(§3) Values of K m and V max were calculated by linear regression of Lineweaver–Burk analyses (1/v against 1/s, where v is net uptake and s is substrate concentration). The kinetic values of nitrate transport by the WT and mutants were compared with those from a previous report ([Unkles et al., 2001]). […] Therefore the kinetic values in the absence of inhibitors from the present study were used as control values. Each K i value was determined by regression of the rates of net nitrate uptake transport versus the range of concentrations of a particular inhibitor: linear or nonlinear regression was used, depending on which type provided the highest r ^2 value. Calculated from each regression was the concentration of the inhibitor that reduced net nitrate uptake rate by 50 % of the control (without inhibitor) rate, which was assessed as the K i value. Lineweaver–Burk analyses were carried out to determine the nature of the inhibition of nitrate transport for each inhibitor.

[3] = target: T1, NrtA; parameters: mutant nrtB110 (expressing a functional NrtA); endogenous in cells; host or cells: Aspergillus nidulans mycelium, knockout strain nrtB110, nitrate-induced; method as in Zhou et al. (2000); details: NrtA expressed in Xenopus oocytes; ref Zhou et al. (2000); cited from earlier work
[4] = target: NrtA, NrtB (WT strain); assay: Net nitrate uptake assay and kinetics, WT strain; format: cell-based, Aspergillus nidulans; details: WT (NrtA, NrtB), inhibitor concentration reducing net nitrate uptake rate by 50 % of control, mean ± SE
Description: as §1, §2, §3

[5] = test system: NrtB; format: cell-based, Aspergillus nidulans; details: for nature of inhibition of nitrate transport (Lineweaver–Burk): NrtB (expressed in nrtA1); for Ki: nrtA1 (NrtB), inhibitor concentration reducing net nitrate uptake rate by 50 % of control, mean ± SE
Description: as §1, §2, §3

[6] = test system: NitA; details: data not shown
[7] = test system: A. nidulans mutant nrtB110 (functional NrtA); assay: microbe, parasite or virus in culture; format: cell-based, Aspergillus nidulans; details: nrtB110 (NrtA)
Description: (§4) Fungal growth tests were carried out in standard Petri dishes containing defined Aspergillus minimal medium (AMM) agar ([Cove, 1976]), with sodium nitrate or proline as the sole nitrogen source, at 1 or 10 mM concentration. Strains were tested for inhibition by bicarbonate, formate, oxalate, chlorite, sulphite (all purchased as the sodium salt), chlorate (potassium salt), malonate (acid form) or caesium (chloride salt). Stock aqueous solutions of inhibitors were adjusted to pH 6.5 and prepared immediately before use. It should be noted that at pH 6.5, bicarbonate is in approximately 50 % equilibrium with carbonic acid. […] Cultures were incubated routinely at 37 °C for 48 h, and the growth response was scored.
(§5) Each treatment was carried out in five replicates. […] As caesium was utilized as a chloride salt, a control for potential inhibition by chloride was assessed, by growth on 100 mM sodium chloride (Fig. 4).

[8] = test system: A. nidulans double mutant tbl110 (nrtA747 nrtB110, neither transporter); assay: microbe, parasite or virus in culture; format: cell-based, Aspergillus nidulans; details: T110 (neither transporter)
Description: as §4, §5

[9] = test system: A. nidulans mutant nrtA1 (functional NrtB); assay: microbe, parasite or virus in culture; format: cell-based, Aspergillus nidulans; details: Aspergillus nidulans
Description: as §4, §5

[10] = test system: A. nidulans WT strain (NrtA, NrtB); assay: MIC growth test on solid AMM, WT strain; format: cell-based, Aspergillus nidulans; details: Aspergillus nidulans
Description: as §4, §5

[11] = test system: NrtA, NrtB (WT strain); parameters: method as in Brownlee & Arst (1983); details: 1 mM chlorate, cells grown for 6 or 17 h, ref Brownlee & Arst (1983); cited from earlier work
[12] = test system: NrtB; parameters: method as in Brownlee & Arst (1983); details: crnA1 (nrtA1) mutant, 1 mM chlorate, cells grown for 6 or 17 h; ref Brownlee & Arst (1983); cited from earlier work
[13] = Aspergillus nidulans, 1 mM nitrate as sole nitrogen source
[14] = Aspergillus nidulans, 1 mM proline as sole nitrogen source
[15] = Aspergillus nidulans, 10 mM proline as sole nitrogen source
[16] = 10 mM proline as sole nitrogen source
[17] = 1 mM proline as sole nitrogen source
[18] = 10 mM nitrate as sole nitrogen source
[19] = 1 mM nitrate as sole nitrogen source, solid AMM, 37 °C

T1 sequence (P22152 whole entry): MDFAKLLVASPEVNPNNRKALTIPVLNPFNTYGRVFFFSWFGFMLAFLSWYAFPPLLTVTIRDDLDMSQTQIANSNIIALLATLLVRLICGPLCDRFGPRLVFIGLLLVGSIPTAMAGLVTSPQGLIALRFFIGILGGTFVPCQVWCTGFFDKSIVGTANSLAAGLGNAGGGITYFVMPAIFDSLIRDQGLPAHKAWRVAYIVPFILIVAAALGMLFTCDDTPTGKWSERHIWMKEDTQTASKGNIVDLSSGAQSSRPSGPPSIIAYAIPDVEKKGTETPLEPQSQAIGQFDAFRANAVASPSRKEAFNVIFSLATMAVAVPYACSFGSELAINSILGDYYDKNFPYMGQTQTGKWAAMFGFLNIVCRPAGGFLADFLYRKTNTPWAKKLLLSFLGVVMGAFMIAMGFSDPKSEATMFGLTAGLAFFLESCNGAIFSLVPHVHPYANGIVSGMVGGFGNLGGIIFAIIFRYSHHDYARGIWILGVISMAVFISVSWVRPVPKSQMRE

SMILES	Ki [2]	nature of inhibition of nitrate transport (Lineweaver–Burk) [2]	substrate / transport by NrtA in oocytes [3]	Ki [4]	nature of inhibition of nitrate transport (Lineweaver–Burk) [5]	Ki [5]	MIC [7, 13]	MIC [7, 15]	MIC [10, 19]	MIC [10, 17]	MIC [10, 16]	other results
[O-][Cl+]O [Chlorite, chlorite]	0.49 ± 0.01 mM	competitive; also recorded: competition	substrate	0.35 ± 0.02 mM	non-competitive inhibition	0.34 ± 0.02 mM	100 µM (≈ 6.85 µg/mL)	3000 µM (≈ 205 µg/mL)	200 µM (≈ 13.7 µg/mL)	500 µM (≈ 34.2 µg/mL)	1000 µM (≈ 68.5 µg/mL)	concentration sufficient to prevent transport of nitrate completely [1]: 1 mM; substrate for nitrite transporter NitA [6]: significant substrate; MIC [7, 14]: 500 µM (≈ 34.2 µg/mL); MIC ([7]; Aspergillus nidulans, 10 mM nitrate as sole nitrogen source): 500 µM (≈ 34.2 µg/mL); MIC [7, 16]: 3000 µM (≈ 205 µg/mL); MIC [8, 14]: > 500 µM; MIC [8, 15]: 5000 µM (≈ 342 µg/mL); MIC [8, 17]: >500 µM; MIC ([9]; 1 mM nitrate as sole nitrogen source): 200 µM (≈ 13.7 µg/mL); MIC [9, 17]: 500 µM (≈ 34.2 µg/mL); MIC [9, 18]: 500 µM (≈ 34.2 µg/mL); MIC [9, 16]: 2000 µM (≈ 137 µg/mL); MIC [10, 18]: 500 µM (≈ 34.2 µg/mL)
[O-][Cl+2]([O-])O [Chlorate, chlorate]	29.3 ± 2.8 mM	competition with nitrate	did not, however, observe transport	29.9 ± 3.7 mM	non-competitive inhibition	44.3 ± 2.3 mM	50000 µM (≈ 4220 µg/mL)	50000 µM (≈ 4220 µg/mL)	100000 µM (≈ 8450 µg/mL)	50000 µM (≈ 4220 µg/mL)	25000 µM (≈ 2110 µg/mL)	reduction of nitrate transport [11]: 80%; nature of inhibition of nitrate transport (Lineweaver–Burk) ([2]; listed as chlorate): competitive inhibitor; activity at 10000 µM ([2]; read-out: net nitrate transport activity retained): 65%; Ki ([4]; listed as chlorate): ~30 mM; reduction of nitrate transport [12]: 80%; nature of inhibition of nitrate transport (Lineweaver–Burk) ([5]; listed as chlorate): non-competitively; Ki ([5]; listed as chlorate): ~44 mM; net nitrate transport activity retained ([5]; nrtA1 (functional NrtB), 10 mM chlorate, data not shown): 93%
